Measurements taken from US7569354B2, “Cellomics system” (OnChip Cellomics Consortium, priority 2004, dated 2009).

Experiments:
[1] = tested on: blood from a patient suffering from leukemia; test: separation of cells causing leukemia by intake of labeled amino acids; assay type: cell-based, human
Procedure: Descriptions are provided below for a case in which cells causing leukemia are separated by applying the technique in Example 3 for cell separation. NDB folic acid (Ex465/Em540), 4,4-difluoro-1,3,5,7-tetramethyl-4-bora-3a,4a-diaza-s-indacene-8-propionate labeled ASn, and 4,4-difluoro-5-(2-pyrrole)-4-bora-3a,4a-diaza-s-indacene-3-propionate labeled Thr are added to blood from a patient suffering from leukemia, and the mixture is incubated for 30 minutes at 37° C. Using the NDB folic acid (Ex465/Em540) as a control, the amounts of intaked 4,4-difluoro-3,5,7-tetramethyl-4-bora-3a,4a-diaza-s-indacene-8-propionate labeled ASn (Ex493/Em503) and intaked 4,4-difluoro-5-(2-pyrrole)-4-bora-3a,4a-diaza-s-indacene-3-propionate labeled Thr are measured by detecting the fluorescent intensities of various derivatives of 4,4-difluoro-4-bora-3a,4a-diaza-s-indacene against the fluorescence intensity generated by NDB-labeled folic acid, and cells having high fluorescence intensity with the fluorescence wavelength of around 503 nm, namely cells having a large intake amount of the 4,4-difluoro-1,3,5,7-tetramethyl-4-bora-3a,4a-diaza-s-indacene-8-propionate labeled ASn are sorted with a cell sorter.

[2] = tested on: cells from a lever tissue; test: cell separation by cell permeability of NBD-labeled sugars, lever tissue cells; assay type: cell-based
[3] = tested on: cells from brain tissue pieces; test: cell separation by cell permeability of NBD-labeled sugars, brain-derived cells; assay type: cell-based; settings: 15 minutes at 37° C., 200 cells processed
Source text: In Example 2 for cell separation, a case is described in which differences of cells are recognized by measuring differences in cell permeability of a plurality of substrates and then discrete cells are separated. In this example, cells are identified and separated by observing the cell permeability of galactose or fructose against the glucose described in the aforementioned document. Generally, glucose is often used as an energy source for cells, but galactose or fructose is not directly consumed. For instance, when Escherichia coli is cultured in a mixed culture medium of glucose and fructose, glucose is consumed at first, and then […] is consumed when glucose decreases. Therefore, for instance, by measuring cell permeability of various types of substrates using a quantity of intaked glucose as control data, cell separation reflecting the state of cell more accurately can be performed.
In this example, a glucose labeling derivative of 6-(N-(7-nitrobenz-2-oxa-1.3-diazol-4-yl)amino) sugar (Ex465/Em540) (NBD-labeled sugar) is used. […] The culture fluid is exchanged with that not containing the NBD-labeled sugar, and the sample is immediately added to a cell sorter independently developed by the inventors, and cells with the relative fluorescence intensity of 500 or more are separated.

[4] = tested on: neurocyte / pulsating myocardial cell; settings: added to culture fluid of the neurocyte side only
Procedure: In Example 3, examination is made for whether a beat cycle of the pulsating myocardial cell 2-1 kept in the cell holding zone 2 changes when potassium or glucose, or suspected endocrine disrupter is added to the culture fluid of the neurocyte 3-2 in the cell holding zone 3, or the content is increased.
At first, the same culture fluid is filled in the culture fluid baths 21-1, 21-2, and a beat cycle of the pulsating myocardial cell 2-1 is checked to obtain a myocardial pulsation pattern showing the substantially same cycle as shown in FIG. 49(A).

4,4-difluoro-1,3,5,7-tetramethyl-4-bora-3a,4a-diaza-s-indacene-8-propionate labeled ASn
cancerous leukocytes among the sorted cells with large intake, histological examination ([1]; 30 minutes at 37° C., fluorescence around 503 nm, NDB folic acid as control): ≥ 95%

4,4-difluoro-5-(2-pyrrole)-4-bora-3a,4a-diaza-s-indacene-3-propionate labeled Thr
intake rate in normal cells against cancer cells ([1]; compared to labeled Asn): not so remarkable

O=[N+]([O-])c1ccc(NCC2OC(O)C(O)C(O)[C@@H]2O)c2nonc12 (some centres unmarked) [NBD-labeled glucose]
cells obtained with the relative fluorescence intensity of 500 or more [2]: 46 cells | cells obtained with the relative fluorescence intensity of 500 or more [3]: 66 cells

NCCc1ccc(O)c(O)c1 [dopamine, 2-dihydroxyphenylethylamine]
beat cycle of the pulsating myocardial cell [4]: disturbance in the beat cycle
